Measurements published in publication PMC6925310 (SLAS discovery : advancing life sciences R & D, 2019).
Several values for one entry are separate records, joined by “and”; a condition that tells them apart may be missing. Equal values may be shown once. Entries after “also recorded” stand apart in the source; their conditions may differ. Read-outs that look alike come from different tables or passages of the source. Values belong to the compound of their own block, whether it stands above or below them.

Key:
M. catarrhalis = experiment: Time-kill kinetic assay; format: cell-based, Moraxella catarrhalis; conditions: 4×MIC, 0 to 24 h
[1] = test system: human embryonic kidney 293 cells (HEK-293); experiment: MTT cytotoxicity assay; conditions: HEK-293, MTT, 25 to 400 μg/mL, 24 h
P. aeruginosa LysRS [2] = target: T1, P. aeruginosa LysRS (Pseudomonas aeruginosa, UniProt Q9HXU0); experiment: Binding mode; format: biochemical; conditions: for mechanism of inhibition with respect to ATP: IC50 at ATP 25 to 1000 μM, amino acid constant; for mechanism of inhibition with respect to ATP / mechanism of inhibition with respect to lysine: LysRS 0.01 μM; for mechanism of inhibition with respect to lysine: IC50 at lysine 25 to 300 μM, ATP 2.5 mM
T1 sequence (Q9HXU0 1-501): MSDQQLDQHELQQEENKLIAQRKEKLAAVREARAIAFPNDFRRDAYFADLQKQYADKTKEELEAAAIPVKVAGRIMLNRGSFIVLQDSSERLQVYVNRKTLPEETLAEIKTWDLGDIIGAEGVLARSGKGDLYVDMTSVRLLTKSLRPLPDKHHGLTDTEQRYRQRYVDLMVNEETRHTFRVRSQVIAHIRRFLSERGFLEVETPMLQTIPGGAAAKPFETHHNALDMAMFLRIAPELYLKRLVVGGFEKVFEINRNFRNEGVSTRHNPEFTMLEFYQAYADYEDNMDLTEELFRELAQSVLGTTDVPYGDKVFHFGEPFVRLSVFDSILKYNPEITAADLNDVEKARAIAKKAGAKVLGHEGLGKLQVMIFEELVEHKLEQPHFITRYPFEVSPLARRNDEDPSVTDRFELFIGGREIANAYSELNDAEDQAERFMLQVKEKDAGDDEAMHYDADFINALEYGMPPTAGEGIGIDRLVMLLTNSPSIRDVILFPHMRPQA

[3] = test system: human embryonic kidney 293 cells (HEK-293)
P. aeruginosa LysRS [4] = target: T1, P. aeruginosa LysRS; experiment: SPA-based tRNA aminoacylation assay; format: biochemical
[5] = test system: gram-positive bacterial cultures; conditions: cited from earlier work
P. aeruginosa LysRS [6] = target: T1, P. aeruginosa LysRS; experiment: ATP:PPi exchange reaction, substrate kinetics; conditions: substrate varied, other substrate held at 2 mM; LysRS 0.1 μM
eukaryotic LysRS = conditions: cited from earlier work

SMILES: S=C(N/N=C1\CCCc2c1[nH]c1ccc(C3CCCCC3)cc21)Nc1ccccc1 [BT06F11, 1-[(~›E‹)-(6-cyclohexyl-2,3,4,9-tetrahydrocarbazol-1-ylidene)amino]-3-phenylthiourea]
- global mode of inhibition (time-kill) (M. catarrhalis): bactericidal; also recorded: inhibited growth by killing the bacteria
- toxicity to human cell growth (in words) [1]: not toxic at any concentration tested; also recorded: not observed to be toxic
- mechanism of inhibition with respect to ATP (P. aeruginosa LysRS [2]): mechanism other than substrate competition; also recorded: noncompetitive; also recorded: not observed to be competitive
- mechanism of inhibition with respect to lysine (P. aeruginosa LysRS [2]): mechanism other than substrate competition; also recorded: noncompetitive; also recorded: not observed to be competitive

SMILES: C=CC1=C(C)/C(=C/c2[nH]c(Cc3[nH]c(/C=C4\NC(=O)C(C)=C4C=C)c(C)c3CCC(=O)O)c(CCC(=O)O)c2C)NC1=O [BM01D09, bilirubin]
- CC50 relative to MICs against susceptible bacteria [3]: 6-20 fold
- IC50 (P. aeruginosa LysRS [4]): 17 µM
- inhibition of growth of gram-positive bacterial cultures [5]: inhibitory
- global mode of inhibition (time-kill) (M. catarrhalis): bacteriostatic
- Ki (P. aeruginosa LysRS [2]): 3.5 µM
- mechanism of inhibition with respect to ATP (P. aeruginosa LysRS [2]): competing with ATP; also recorded: IC50 also increased; also recorded: competitive inhibition
- mechanism of inhibition with respect to ATP (P. aeruginosa LysRS [2]; listed as bilirubin): competitive with ATP
- mechanism of inhibition with respect to lysine (P. aeruginosa LysRS [2]): no change in the IC50
- mechanism of inhibition with respect to lysine (P. aeruginosa LysRS [2]; listed as bilirubin): noncompetitive with lysine

SMILES: NCCCC[C@H](N)C(=O)O [lysine]
- kcat^obs (P. aeruginosa LysRS [6]): 13 s⁻¹ and 13.3 s⁻¹

SMILES: C[C@H]1CCC[C@H](C[C@H]2Cc3cc(O)cc(O)c3C(=O)O2)O1 [cladosporin]
- inhibition of eukaryotic LysRS (in words) (eukaryotic LysRS): potent ATP competitive inhibitor

- mechanism of inhibition with respect to lysine (P. aeruginosa LysRS [2]): uncompetitive with the amino acid
- Ki (P. aeruginosa LysRS [2]; read-out: mean Ki, calculated from IC50 values determined at 75 μM lysine and 2.5 mM ATP, multiple determinations): 3.4 µM
SMILES: O=C(CCCCCCCCC(=O)N/N=C/c1ccc([N+](=O)[O-])o1)N/N=C/c1ccc([N+](=O)[O-])o1 [BT08F04, ~›N‹,~›N‹′-bis[(~›E‹)-(5-nitrofuran-2-yl)methylideneamino]decanediamide]
- global mode of inhibition (time-kill) (M. catarrhalis): bactericidal; also recorded: inhibited growth by killing the bacteria
- mechanism of inhibition with respect to ATP (P. aeruginosa LysRS [2]): competitive with ATP; also recorded: competitive inhibition
